The results in this text go back to US10722501B2 (BAYER AKTIENGESELLSCHAFT, priority 2016, dated 2020).

The target in the test is T1, recombinant full-length human prolyl endopeptidase (PREP) (Homo sapiens, UniProt P48147).
T1 construct: To recombinant full-length human prolyl endopeptidase (PREP, R&D-Systems, 4308-SE); purchased R&D-Systems 4308-SE
T1 sequence (P48147 1-710): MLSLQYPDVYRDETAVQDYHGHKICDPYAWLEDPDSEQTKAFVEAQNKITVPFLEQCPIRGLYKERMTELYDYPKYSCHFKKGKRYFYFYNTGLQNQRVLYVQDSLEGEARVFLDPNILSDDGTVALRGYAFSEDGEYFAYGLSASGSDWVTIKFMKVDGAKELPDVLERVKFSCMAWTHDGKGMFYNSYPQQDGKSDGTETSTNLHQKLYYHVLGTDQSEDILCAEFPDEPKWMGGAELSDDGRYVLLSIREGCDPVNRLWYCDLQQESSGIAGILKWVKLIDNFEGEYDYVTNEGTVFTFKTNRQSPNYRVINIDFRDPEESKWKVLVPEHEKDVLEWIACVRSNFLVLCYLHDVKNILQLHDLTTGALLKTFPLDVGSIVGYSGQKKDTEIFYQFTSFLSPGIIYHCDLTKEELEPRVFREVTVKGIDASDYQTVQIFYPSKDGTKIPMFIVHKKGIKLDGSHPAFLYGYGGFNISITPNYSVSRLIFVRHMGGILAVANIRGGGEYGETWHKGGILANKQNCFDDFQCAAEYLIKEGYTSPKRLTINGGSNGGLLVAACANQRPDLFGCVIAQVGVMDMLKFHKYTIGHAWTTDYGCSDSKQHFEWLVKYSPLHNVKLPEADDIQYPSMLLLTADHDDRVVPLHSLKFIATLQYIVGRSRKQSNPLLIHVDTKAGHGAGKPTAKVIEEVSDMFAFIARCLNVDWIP
The experiment in a line: Biochemical human prolyl endopeptidase (PREP) assay with fluorescently labelled substrate. The following applies: substrate Z-Gly-Pro-AMC 50 μM, 32° C., 60 min; some as mean values from multiple independent determinations. The method in brief:
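Initial rates of fluorescence increase from 50 μM Z-Gly-Pro-AMC cleavage (ex 360/em 465 nm, 60 min, 32° C) give percent PREP activity versus no-compound control, and IC50 is interpolated. Enzyme used at 0.4 nM (final, example) in Tris pH 7.5 with EDTA, GSH, BSA and Brij-35; compounds span 1 nM to 30 μM.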
As for `O=C([C@@H]1CCCc2nn(Cc3ccc(F)cc3F)c(=O)n21)N1C[C@@H](F)[C@@H](F)C1` [Example 489, (5S)-2-(2,4-Difluorobenzyl)-5-{[(3R,4S)-3,4-difluoropyrrolidin-1-yl]carbonyl}-5,6,7,8-tetrahydro[1,2,4]triazolo[4,3-a]pyridin-3(2H)-one], the IC50 turned out to be 0.11 nM. `O=C([C@@H]1CCCc2nn(Cc3cc(F)c(F)cc3F)c(=O)n21)N1CCC(F)(F)C1` [Example 490, (5S)-5-[(3,3-Difluoropyrrolidin-1-yl)carbonyl]-2-(2,4,5-trifluorobenzyl)-5,6,7,8-tetrahydro[1,2,4]triazolo[4,3-a]pyridin-3(2H)-one]: the IC50 is 0.38 nM. In the case of `O=C([C@@H]1CCCc2nn(Cc3cc(F)c(F)cc3F)c(=O)n21)N1CC(F)C1` [Example 491, (5S)-5-[(3-Fluoroazetidin-1-yl)carbonyl]-2-(2,4,5-trifluorobenzyl)-5,6,7,8-tetrahydro[1,2,4]triazolo[4,3-a]pyridin-3(2H)-one] it was 0.44 nM. In the case of `O=C([C@@H]1CCCc2nn(Cc3cc(F)c(F)cc3F)c(=O)n21)N1C[C@@H](F)[C@@H](F)C1` [Example 492, (5S)-5-{[(3R,4S)-3,4-Difluoropyrrolidin-1-yl]carbonyl}-2-(2,4,5-trifluorobenzyl)-5,6,7,8-tetrahydro[1,2,4]triazolo[4,3-a]pyridin-3(2H)-one] it was 0.52 nM; in that of `O=C([C@@H]1CCCc2nn(Cc3cc(F)c(F)cc3F)c(=O)n21)N1CC[C@H](F)C1` [Example 493, (5S)-5-{[(3S)-3-Fluoropyrrolidin-1-yl]carbonyl}-2-(2,4,5-trifluorobenzyl)-5,6,7,8-tetrahydro[1,2,4]triazolo[4,3-a]pyridin-3(2H)-one], 0.32 nM. In the case of `O=C([C@@H]1CCCc2nn(Cc3cc(C(F)(F)F)nc4ccccc34)c(=O)n21)N1CC(F)C1` [Example 494, (5S)-5-[(3-Fluoroazetidin-1-yl)carbonyl]-2-{[2-(trifluoromethyl)quinolin-4-yl]methyl}-5,6,7,8-tetrahydro[1,2,4]triazolo[4,3-a]pyridin-3(2H)-one] it was 0.91 nM. For the compound `O=C([C@@H]1CCCc2nn(Cc3cc(C(F)(F)F)nc4ccccc34)c(=O)n21)N1CC(O)C1` [Example 495, (5S)-5-[(3-Hydroxyazetidin-1-yl)carbonyl]-2-{[2-(trifluoromethyl)quinolin-4-yl]methyl}-5,6,7,8-tetrahydro[1,2,4]triazolo[4,3-a]pyridin-3(2H)-one], the IC50 turned out to be 16.5 nM. In the case of `O=C([C@@H]1CCCc2nn(Cc3cc(C(F)(F)F)nc4ccccc34)c(=O)n21)N1CC[C@H](O)C1` [Example 496, (5S)-5-{[(3S)-3-Hydroxypyrrolidin-1-yl]carbonyl}-2-{[2-(trifluoromethyl)quinolin-4-yl]methyl}-5,6,7,8-tetrahydro[1,2,4]triazolo[4,3-a]pyridin-3(2H)-one] it was 18 nM; in that of `O=C([C@@H]1CCCc2nn(Cc3cc(C(F)(F)F)nc4ccccc34)c(=O)n21)N1C[C@@H](F)[C@@H](F)C1` [Example 497, (5S)-5-{[(3R,4S)-3,4-Difluoropyrrolidin-1-yl]carbonyl}-2-{[2-(trifluoromethyl)quinolin-4-yl]methyl}-5,6,7,8-tetrahydro[1,2,4]triazolo[4,3-a]pyridin-3(2H)-one], 0.18 nM. In the case of `O=C([C@@H]1CCCc2nn(Cc3cc(C(F)(F)F)nc4ccc(F)cc34)c(=O)n21)N1CCCC1` [Example 498, (5S)-2-{[6-Fluoro-2-(trifluoromethyl)quinolin-4-yl]methyl}-5-(pyrrolidin-1-ylcarbonyl)-5,6,7,8-tetrahydro[1,2,4]triazolo[4,3-a]pyridin-3(2H)-one] it was 0.44 nM.

In the case of `O=C([C@@H]1CCCc2nn(Cc3nc(C(F)(F)F)no3)c(=O)n21)N1CC(F)(F)C1` [Example 499, (5S)-5-[(3,3-Difluoroazetidin-1-yl)carbonyl]-2-{[3-(trifluoromethyl)-1,2,4-oxadiazol-5-yl]methyl}-5,6,7,8-tetrahydro[1,2,4]triazolo[4,3-a]pyridin-3(2H)-one], the half-maximal inhibitory concentration (IC50) was found to be 110 nM. In the case of `O=C([C@@H]1CCCc2nn(Cc3nc(C(F)(F)F)no3)c(=O)n21)N1C[C@@H](F)[C@@H](F)C1` [Example 500, (5S)-5-{[(3R,4S)-3,4-Difluoropyrrolidin-1-yl]carbonyl}-2-{[3-(trifluoromethyl)-1,2,4-oxadiazol-5-yl]methyl}-5,6,7,8-tetrahydro[1,2,4]triazolo[4,3-a]pyridin-3(2H)-one] it was 5.15 nM. Turning to `O=C([C@@H]1CCCc2nn(Cc3nc(C(F)(F)F)no3)c(=O)n21)N1CCC(F)(F)C1` [Example 501, (5S)-5-[(3,3-Difluoropyrrolidin-1-yl)carbonyl]-2-{[3-(trifluoromethyl)-1,2,4-oxadiazol-5-yl]methyl}-5,6,7,8-tetrahydro[1,2,4]triazolo[4,3-a]pyridin-3(2H)-one], the IC50 turned out to be 25.5 nM. For the compound `O=C([C@@H]1CCCc2nn(Cc3ccc(C(F)(F)F)nc3)c(=O)n21)N1CCSC1` [Example 503, (5S)-5-(1,3-Thiazolidin-3-ylcarbonyl)-2-{[6-(trifluoromethyl)pyridin-3-yl]methyl}-5,6,7,8-tetrahydro[1,2,4]triazolo[4,3-a]pyridin-3(2H)-one], the IC50 was 2 nM. In the case of `O=C([C@@H]1CCCc2nn(Cc3ccc(Br)cn3)c(=O)n21)N1C[C@@H](F)[C@@H](F)C1` [Example 504, (5S)-2-[(5-Bromopyridin-2-yl)methyl]-5-{[(3R,4S)-3,4-difluoropyrrolidin-1-yl]carbonyl}-5,6,7,8-tetrahydro[1,2,4]triazolo[4,3-a]pyridin-3(2H)-one] it was 1.8 nM; in that of `O=C([C@@H]1CCCc2nn(Cc3ccc(Cl)cn3)c(=O)n21)N1CCSC1` [Example 505, (5S)-2-[(5-Chloropyridin-2-yl)methyl]-5-(1,3-thiazolidin-3-ylcarbonyl)-5,6,7,8-tetrahydro[1,2,4]triazolo[4,3-a]pyridin-3(2H)-one], 1.4 nM; in that of `O=C([C@@H]1CCCc2nn(Cc3cncc(Br)c3)c(=O)n21)N1C[C@@H](F)[C@@H](F)C1` [Example 506, (5S)-2-[(5-Bromopyridin-3-yl)methyl]-5-{[(3R,4S)-3,4-difluoropyrrolidin-1-yl]carbonyl}-5,6,7,8-tetrahydro[1,2,4]triazolo[4,3-a]pyridin-3(2H)-one], 1.2 nM. In the case of `O=C([C@@H]1CCCc2nn(Cc3ncc(Cl)cc3F)c(=O)n21)N1CCSC1` [Example 507, (5S)-2-[(5-Chloro-3-fluoropyridin-2-yl)methyl]-5-(1,3-thiazolidin-3-ylcarbonyl)-5,6,7,8-tetrahydro[1,2,4]triazolo[4,3-a]pyridin-3(2H)-one] it was 0.94 nM; in that of `O=C([C@@H]1CCCc2nn(Cc3ccc(Cl)cn3)c(=O)n21)N1CC[C@H](F)C1` [Example 508, (5S)-2-[(5-Chloropyridin-2-yl)methyl]-5-{[(3S)-3-fluoropyrrolidin-1-yl]carbonyl}-5,6,7,8-tetrahydro[1,2,4]triazolo[4,3-a]pyridin-3(2H)-one], 0.91 nM; in that of `O=C([C@@H]1CCCc2nn(Cc3cncc(Br)c3)c(=O)n21)N1CC[C@H](F)C1` [Example 509, (5S)-2-[(5-Bromopyridin-3-yl)methyl]-5-{[(3S)-3-fluoropyrrolidin-1-yl]carbonyl}-5,6,7,8-tetrahydro[1,2,4]triazolo[4,3-a]pyridin-3(2H)-one], 0.7 nM. In the case of `O=C([C@@H]1CCCc2nn(Cc3ccc(Br)cn3)c(=O)n21)N1CC[C@H](F)C1` [Example 510, (5S)-2-[(5-Bromopyridin-2-yl)methyl]-5-{[(3S)-3-fluoropyrrolidin-1-yl]carbonyl}-5,6,7,8-tetrahydro[1,2,4]triazolo[4,3-a]pyridin-3(2H)-one] it was 0.535 nM. With `N#C[C@@H]1CCCN1C(=O)[C@@H]1CCCc2nn(Cc3ccc(C(F)(F)F)nc3)c(=O)n21` [Example 511, (2S)-1-{[(5S)-3-Oxo-2-{[6-(trifluoromethyl)pyridin-3-yl]methyl}-2,3,5,6,7,8-hexahydro[1,2,4]triazolo[4,3-a]pyridin-5-yl]carbonyl}pyrrolidine-2-carbonitrile], the half-inhibitory concentration (IC50) was determined as 0.365 nM. In the case of `N#C[C@@H]1CCCN1C(=O)[C@@H]1CCCc2nn(Cc3ccc(Cl)cn3)c(=O)n21` [Example 512, (2S)-1-({(5S)-2-[(5-Chloropyridin-2-yl)methyl]-3-oxo-2,3,5,6,7,8-hexahydro[1,2,4]triazolo[4,3-a]pyridin-5-yl}carbonyl)pyrrolidine-2-carbonitrile] it was 0.15 nM.

Broadly, the IC50 is the concentration that gives 50% inhibition.
